The data set in a line: Human HepG2 cell viability assay in 384 well format. The data set is classed as toxicity, cell-based. Further details: dose 125 nL, time 70.5 hour; concentration not given beside the values. The note with it: HepG2 cells, read-out: Inhibition.
Take `Cc1cc(F)c2c(c1)CCCN2C(=O)c1cncc(Br)c1`: the cytotoxicity at 70.5 h came out at 0.703%.

In the case of `O=C(CN(Cc1ccco1)C1CC1)Nc1ccc(Br)cn1`, the cytotoxicity at 70.5 h was -17.6%.

As for `Cc1cc(C(C)NC(=O)CCn2nnc3ccccc3c2=O)c(C)o1` (stereo not given), the cytotoxicity at 70.5 h is -5.41%.

For `COCc1cccc(C(=O)N(C)Cc2ncc(C)c(OC)c2C)c1`, the cytotoxicity at 70.5 h was -8.49%.

Regarding `O=C1C(NCc2cccc(O)c2)CCN1Cc1ccccc1` (stereo not given), the cytotoxicity at 70.5 h is -0.773%.

Regarding `CCOCC(=O)NC(C#N)c1cnn(-c2ccccc2)c1` (stereo not given), the cytotoxicity at 70.5 h is -9.95%.

On to `COc1cccc(CCCn2cnnc2[S+](C)[O-])c1` (stereo not given), for which the cytotoxicity at 70.5 h was -7.37%.

For `CS(=O)(=O)c1nccn1Cc1ccc(C(N)=O)cc1`, the cytotoxicity at 70.5 h is -4.15%.

For the molecule `COc1ccc(CCn2cnnc2[S+](C)[O-])cc1` (stereo not given), the cytotoxicity at 70.5 h is -10%.

`O=C(c1cc[nH]n1)N(Cc1ccccc1)CC1CCC1`: the cytotoxicity at 70.5 h is -9.65%.

On to `CC(C)CN1Cc2cccc(NC(=O)Cc3ccon3)c2C1`, for which the cytotoxicity at 70.5 h is -4.05%.

For the molecule `COc1ccc(CN2CCN(c3ncc(Cl)cn3)CC2)cc1`, the cytotoxicity at 70.5 h came to 13.2%.

For `O=C(CCc1ccco1)Nc1ccc(Br)cn1`, the cytotoxicity at 70.5 h is 28.6%.

Turning to `C[S+]([O-])c1nncn1CCc1ccccc1` (stereo not given), the cytotoxicity at 70.5 h stood at 17.1%.

On to `Cc1cc(CSc2nc(=O)ccn2C(C)C)no1`, for which the cytotoxicity at 70.5 h is -3.31%.

As for `Cc1nc(CSc2nc(=O)ccn2C(C)C)cs1`, the cytotoxicity at 70.5 h was -6.6%.

As for `Cc1c(C(=O)N(CCN(C)C)Cc2ccccn2)oc2ccccc12`, the cytotoxicity at 70.5 h was -5.85%.

For the molecule `Cc1occc1C(=O)N(CCN(C)C)Cc1ccccn1`, the cytotoxicity at 70.5 h is 15.9%.

For `Cc1cnn(-c2ccc(C(=O)N3CCN(C)CC3C)cc2)c1` (stereo not given), the cytotoxicity at 70.5 h is -3.9%.

`CSC(C)C(=O)N1CCN(CCO)CC1` (stereo not given): the cytotoxicity at 70.5 h was -6.94%.

As to `CC(C)COCCC(=O)NS(=O)(=O)c1ccc(Cl)s1`, the cytotoxicity at 70.5 h is -16.7%.

As for `CCC(Nc1nnnn1-c1ccccc1)C(=O)NCc1cccs1` (stereo not given), the cytotoxicity at 70.5 h was -8.74%.

In the case of `Cc1cc(C(=O)N2CCN(Cn3cc(Cl)cn3)CC2)c(C)o1`, the cytotoxicity at 70.5 h was -5.19%.

With `CC(=O)NC(C)C(=O)Nc1ccc(OCc2cccc(F)c2)cc1C` (stereo not given), the cytotoxicity at 70.5 h was -9.98%.

For the molecule `CC(=O)N1CCN(C(=O)CNc2c(C)cccc2OC(F)F)CC1`, the cytotoxicity at 70.5 h is -10.2%.

With `CN(C)S(=O)(=O)c1ccc(CSCC(=O)NC(C)(C)C)o1`, the cytotoxicity at 70.5 h is -8.48%.

On to `COc1ccsc1C(=O)Nc1cc(Cl)c(=O)n(C)c1`, for which the cytotoxicity at 70.5 h was -5.8%.

On to `CCc1ccc(C(=O)O)cc1S(=O)(=O)Nc1c(C)ccn(C)c1=O`, for which the cytotoxicity at 70.5 h is -9.15%.

Consider `O=C(COCC(F)(F)F)NC1CCCc2cc(OC(F)F)ccc21` (stereo not given), for which the cytotoxicity at 70.5 h is -6.74%.

As for `CCc1ccsc1C(=O)N1CCS(=O)(=O)CC1`, the cytotoxicity at 70.5 h is -8.8%.

Regarding `CNC(=O)CC1CCN(C(=O)NCc2coc3ccccc23)CC1`, the cytotoxicity at 70.5 h turned out to be 7.31%.

As to `CCOc1cc(CNC(=O)C(C#N)c2nc(C)cs2)ccc1OC(F)F` (stereo not given), the cytotoxicity at 70.5 h was -0.465%.

Take `CC(=O)N1CCC(Nc2cccc(OC(F)F)c2C)CC1`: the cytotoxicity at 70.5 h is -7.15%.

On to `CN1CCN(C(=O)Cc2ccc(S(=O)(=O)C(F)F)cc2)CC1`, for which the cytotoxicity at 70.5 h is -8.11%.

Regarding `CCOCCCC(=O)NS(=O)(=O)c1ccc(C)s1`, the cytotoxicity at 70.5 h was -0.611%.

Regarding `COCCOC1CCN(C(=O)NCc2coc3ccccc23)CC1`, the cytotoxicity at 70.5 h was -6.59%.

Consider `CC(c1ccccn1)N(C)C(=O)NCCn1c(=O)oc2ccccc21` (stereo not given), for which the cytotoxicity at 70.5 h is 6.82%.

With `Cc1ccc2c(c1)C(NCc1nccn1Cc1ccccc1)CCCO2` (stereo not given), the cytotoxicity at 70.5 h is -13.4%.

Take `CC(C)c1nc(CNC(C(=O)N2CCOCC2)C(C)C)no1` (stereo not given): the cytotoxicity at 70.5 h is -5.23%.

In the case of `Cc1nc(CNC(C(=O)N2CCOCC2)C(C)C)oc1C` (stereo not given), the cytotoxicity at 70.5 h was -5.87%.

Consider `CN(CCOc1ccc(Cl)cc1)Cc1ccc(S(=O)(=O)N(C)C)o1`, for which the cytotoxicity at 70.5 h is -2.41%.

On to `Cc1noc(C)c1CC(=O)Nc1ccn(CC(N)=O)n1`, for which the cytotoxicity at 70.5 h is -5.49%.

Consider `O=C(Nc1ccccn1)C1CCN(Cc2cccc3c2OCCO3)CC1`, for which the cytotoxicity at 70.5 h was 27.9%.

Regarding `NC(=O)[C@@H]1Cc2ccccc2CN1S(=O)(=O)N1CCCCCC1`, the cytotoxicity at 70.5 h was -4.6%.

Regarding `CC(=O)N(C)c1nc(Cn2nnnc2C2CCCC2)cs1`, the cytotoxicity at 70.5 h came out at 0.35%.

With `Cn1cnnc1C1CCCN(C(=O)c2cc(-c3ccccc3)on2)C1` (stereo not given), the cytotoxicity at 70.5 h was -9.15%.

Take `CS(=O)(=O)c1cccc(C(=O)NCc2nc3cc(F)ccc3[nH]2)c1`: the cytotoxicity at 70.5 h was -5.23%.

With `CN(CC(F)(F)F)C(=O)CNC(=O)N1CCCC(C(F)(F)F)C1` (stereo not given), the cytotoxicity at 70.5 h was -2.98%.

Regarding `CC(NC(=O)Cc1ccccc1F)(C(N)=O)c1cccc(Cl)c1` (stereo not given), the cytotoxicity at 70.5 h is -6.76%.

On to `CCc1nc(CC)n(CC(=O)NCc2cccc(C)c2)n1`, for which the cytotoxicity at 70.5 h is -6.53%.

For the molecule `CSc1[nH]c(=O)c(C(=O)N2CCCC2c2cccs2)cc1C#N` (stereo not given), the cytotoxicity at 70.5 h is -2.03%.

Take `CNC(=O)CN1CCC(OCc2ccc(Cl)c(Cl)c2)CC1`: the cytotoxicity at 70.5 h came to 3.41%.

For the molecule `CC(NC(=O)Cc1cccs1)(C(N)=O)c1cccc(Cl)c1` (stereo not given), the cytotoxicity at 70.5 h was determined as 1.57%.

For `CC(C)c1noc(CN2CCOCC2C)n1` (stereo not given), the cytotoxicity at 70.5 h was -4.78%.

For `CC(C)Cc1noc(CN2CCOCC2C)n1` (stereo not given), the cytotoxicity at 70.5 h was -1.45%.

On to `CCCc1noc(CN2CCOCC2C)n1` (stereo not given), for which the cytotoxicity at 70.5 h stood at 20.1%.

For `CCc1nc(CC)n(CC(=O)NCc2ccccc2C)n1`, the cytotoxicity at 70.5 h is -10.6%.

On to `CC(O)(CNC(=O)c1cccnc1-n1cccn1)c1ccsc1` (stereo not given), for which the cytotoxicity at 70.5 h was -7.4%.

As for `COCCN1CCC(CNC(=O)c2cc(Cl)c[nH]2)CC1`, the cytotoxicity at 70.5 h was -11.1%.

In the case of `CSCc1cc(F)ccc1CNCc1cccnc1`, the cytotoxicity at 70.5 h is -6.28%.

Take `CCn1nc(C)cc1C(=O)NCc1noc(C(C)(C)C)n1`: the cytotoxicity at 70.5 h was -1.63%.

As for `Cn1c(CC2CCS(=O)(=O)C2)nnc1SCCOc1ccccc1F` (stereo not given), the cytotoxicity at 70.5 h was -8.16%.

`N#CCCN(C(=O)CN1CCCC1C1CCCCC1)c1ccccc1` (stereo not given): the cytotoxicity at 70.5 h is 11.9%.

In the case of `Cc1ccc2oc(CNC(C)c3nnc4n3CCCC4)cc2c1` (stereo not given), the cytotoxicity at 70.5 h worked out at 5.79%.

For the molecule `CC(NCc1ccc(Cl)o1)c1nnc2n1CCCC2` (stereo not given), the cytotoxicity at 70.5 h was found to be 9.09%.

Regarding `Cc1ccc(C(=O)NCCS(C)(=O)=O)c(=O)[nH]1`, the cytotoxicity at 70.5 h was -5.11%.

Regarding `COc1cc(CN(C)C(=O)NCCC2CCCO2)ccc1SC` (stereo not given), the cytotoxicity at 70.5 h was -3.73%.

As to `Cc1nnc(NC(=O)CN(C)CC2CCCN2c2cccnn2)s1` (stereo not given), the cytotoxicity at 70.5 h came to 18.3%.

For the molecule `Cc1ccc(CNC2CCN(CCc3ccncc3)CC2)s1`, the cytotoxicity at 70.5 h is 1.18%.

As for `Cc1cc(C)n(-c2cncc(N3CCN(C(=O)C(C)(C)C)CC3)n2)n1`, the cytotoxicity at 70.5 h came to 1.04%.

For the molecule `CCS(=O)(=O)NC(C(=O)NC)c1ccc(F)c(F)c1` (stereo not given), the cytotoxicity at 70.5 h amounted to 2.45%.

As to `CNC(=O)C(NC(=O)c1nccn2ccnc12)c1ccc(F)c(F)c1` (stereo not given), the cytotoxicity at 70.5 h is -1.99%.

Regarding `CC(=O)N1CCN(C(=O)C2SCCc3sccc32)CC1` (stereo not given), the cytotoxicity at 70.5 h was found to be 20.4%.

Turning to `CC(CNC(=O)N1CCN(CC(F)F)CC1)Cc1cccs1` (stereo not given), the cytotoxicity at 70.5 h is 1.43%.

In the case of `N#CCCN(C(=O)CN1CCCC1Cc1ccccc1)c1ccccc1` (stereo not given), the cytotoxicity at 70.5 h was found to be 0.569%.

Regarding `CCC1CCCCN1C(=O)c1ccc2[nH]nnc2c1` (stereo not given), the cytotoxicity at 70.5 h is -2.33%.

With `COc1cccc(CN(C)Cc2ccc(C#N)cc2)c1OC`, the cytotoxicity at 70.5 h is -1.54%.

As for `Cc1cccnc1NC(=O)C1CCCN1Cc1ccccc1` (stereo not given), the cytotoxicity at 70.5 h is 8.68%.

For `CS(=O)(=O)NCCC(=O)NC1CCc2nccn2C1` (stereo not given), the cytotoxicity at 70.5 h was -4.75%.

Turning to `CS(=O)(=O)NCC(=O)NC1CCc2nccn2C1` (stereo not given), the cytotoxicity at 70.5 h was -7.92%.

For `Cc1nc(C2CCCN2C(=O)CNS(C)(=O)=O)no1` (stereo not given), the cytotoxicity at 70.5 h is -13.3%.

Turning to `O=C(NCCCn1cccn1)N1CCCC1c1ccncc1` (stereo not given), the cytotoxicity at 70.5 h came to 6.98%.

Take `CNC(=O)NC(=O)CN1CCC(c2c[nH]c3ccc(OC)cc23)CC1`: the cytotoxicity at 70.5 h is -5.75%.

As to `CCC(=O)NCC(=O)NCc1cc(Br)ccc1OC(F)F`, the cytotoxicity at 70.5 h was -5.29%.

Consider `CN(C)C(=O)CNC(=O)c1cc(Br)c2c(c1)OCCO2`, for which the cytotoxicity at 70.5 h is -3.47%.

Consider `CCSCCC(=O)Nc1ncn(CC(=O)NCc2ccccc2)n1`, for which the cytotoxicity at 70.5 h was -7.93%.

Turning to `CC(Sc1nnnn1C1CCOCC1)C(=O)NC1CCCCC1` (stereo not given), the cytotoxicity at 70.5 h is -3.49%.

`CNC(=O)Cn1cc(C#N)c(=O)c2cc(Br)ccc21`: the cytotoxicity at 70.5 h is -3.12%.

As for `O=C(O)c1csc(S(=O)(=O)N2CCCc3ccc(F)cc32)c1`, the cytotoxicity at 70.5 h is -0.904%.

For `C[S+]([O-])CCCNC(=O)c1cc(Br)c2c(c1)OCCO2` (stereo not given), the cytotoxicity at 70.5 h is -0.213%.

For the molecule `CCOCCn1nnc(C2(NC(=O)c3ccccc3)CCCC2)n1`, the cytotoxicity at 70.5 h was 3.3%.

As to `CN(CCNC(=O)N1CCN(Cc2ccon2)CC1)c1ccccc1`, the cytotoxicity at 70.5 h was -5.16%.

As for `Cc1cnn(Cc2cc(F)ccc2F)c1NC(=O)C1COCCO1` (stereo not given), the cytotoxicity at 70.5 h is -0.231%.

On to `NC(=O)C1CCN(Cc2cccc(NC(=O)c3ccsc3)c2)CC1`, for which the cytotoxicity at 70.5 h turned out to be 0.035%.

Turning to `CCc1nsc(NC2CCCn3nc(CC)nc32)n1` (stereo not given), the cytotoxicity at 70.5 h was -5.19%.

As to `CCc1nc(CCNC(=O)Nc2cc(C(N)=O)sc2C)cs1`, the cytotoxicity at 70.5 h turned out to be 17%.

In the case of `CC(=O)Nc1c(C)cnn1Cc1cc(F)ccc1F`, the cytotoxicity at 70.5 h is -2.07%.

For the molecule `CSC(C)(C)CNC(=O)NCCC1CCN(C)CC1`, the cytotoxicity at 70.5 h was -3.38%.

As for `CN1CCCC(CNC(=O)N2CCN(Cc3ccon3)CC2)C1` (stereo not given), the cytotoxicity at 70.5 h was -0.171%.

As to `CC(NC(=O)Cn1cccn1)c1cccnc1` (stereo not given), the cytotoxicity at 70.5 h was -4.88%.

With `COc1ccc(-n2cnnc2SCC(C)(C)O)cn1`, the cytotoxicity at 70.5 h was -3.59%.

Turning to `COc1ccc(CNC(C)c2cccc(Cl)c2)c(OC)c1OC` (stereo not given), the cytotoxicity at 70.5 h is -0.149%.

Take `Cc1ccc(N2CCCC(N(C)Cc3cc(C)no3)C2)nn1` (stereo not given): the cytotoxicity at 70.5 h was -2.5%.

Take `CN1CCN(C(CNC(=O)CCn2cccn2)c2cccs2)CC1` (stereo not given): the cytotoxicity at 70.5 h was -4.76%.

For the molecule `Cn1cccc1C1CCCN1C(=O)NCCCn1cccn1` (stereo not given), the cytotoxicity at 70.5 h is -7.92%.
